Publication PMC6986439, “Sultiame pharmacokinetic profile in plasma and erythrocytes after single oral doses: A pilot study in healthy volunteers” (Pharmacology Research & Perspectives, 2020)
Several values for one entry are separate records, joined by “and”; a condition that tells them apart may be missing. Equal entries are not always repeated. Where two headings read alike, the source gives them in different places.

How the values were obtained:
[1] = Population PK compartmental analysis (two-compartment model with saturable ligand to receptor binding); format: in vivo, human
Description: A population PK analysis was also performed using a nonlinear mixed‐effect modeling approach (NONMEM version 7.4, ICON Development Solutions, Hanover MD, USA). […] The model was expressed in terms of differential equations and first‐order rate constants of absorption (ka), elimination (ke), association with (kon) and dissociation from (koff) receptors, maximal binding capacity (Btot), apparent central volume of distribution (Vc/F), and erythrocytes’ volume of distribution (Very). Note that Very actually encompasses the volume of all types of cells containing receptors, assumed to tally with the sampled erythrocytes. Plasma protein binding was assumed constant over the whole range of observed concentrations. Renal extraction fraction (Qren) was added to characterize urine excretion with an additional compartment for urine data. Values of kon and koff characterized in vitro at different temperatures were used as initial estimates and the value of kon to 2018 µM^−1 h^−1 at 37°C fixed in the in vivo model. F was not evaluated, making the model estimate apparent values for Vc/F and CL/F. The first‐order elimination rate constant from the central compartment was calculated as ke = (CL/F)/(Vc/F). The first value below the LLOQ was equaled to LLOQ/2 and subsequent nonquantifiable values were discarded (M6 method).12 Details concerning differential equations and model building steps and adjustment are available in Supplemental material.
Figure 1 Compartmental model accounting for nonlinearity of distribution. Aa, amount of sultiame at the absorption site; Ap, amount of sultiame in plasma and central compartment; Vc, central volume of distribution; Aery, amount of sultiame in the cells, assumed to be bound to receptors; Very, cellular volume of distribution; ka, absorption rate constant; ke, elimination rate constant; kon, constant of association onto receptors binding sites; koff, constant of dissociation from the binding site; Bbound, amount of occupied receptors, assumed equal to Aery; Bfree, amount of free binding sites; Btot, sultiame maximal binding capacity (mg); Qren, renal fraction of the elimination rate; Foral, oral bioavailability, assumed equal to 1
A stepwise procedure was used to identify the model that best fitted the data, comparing two‐, three‐, and four‐compartmental models (peripheral or separate intracellular compartments for free and bound sultiame), and other nonlinear models (Bmax sigmoid model). Exponential errors were used for the description of between‐subject variability (BSV) of PK parameters. Proportional, additive, and mixed error models were compared to describe the residual variability. The stability and internal validity of the final model were assessed by means of standard procedures, detailed in Supplemental material. Covariates were not analyzed due to the limited number of subjects included.
Our population PK analysis used a non-linear mixed effect two-compartment model with first-order absorption incorporating a saturable ligand to receptor binding. We fitted it to our data with the NONMEM software (version 7.4, ICON Development Solutions, Hanover MD, USA), using the ADVAN13 subroutine.
Notice that Aery simultaneously expresses the amount of binding sites occupied by sultiame (Bbound). Thus, the amount of free binding sites corresponds to Bfree = (Btot – Aery), and the model only needs the parameter Btot to characterize the size of the saturable compartment associated to receptor binding (in mg of sultiame). The values of kon and koff characterized in vitro at 37°C were used in the in vivo model as initial estimates, and the kon was fixed to 2018 µM^-1· h^-1.
The model was fitted to the data using first order conditional estimation (FOCE) to obtain values for the eight model parameters listed above. […]

[2] = tested on: erythrocytes; assay: In vitro spiking experiment: sultiame exchanges between plasma and erythrocytes; format: in vitro ADME, human
Description: A spiking experiment was performed to better characterize sultiame exchanges between plasma and erythrocytes. The influx into cells was investigated through spiking fresh human whole blood on EDTA at different target concentrations (1, 5, 10, 20, 40, and 80 mg/L) and different temperatures (4, 21, and 37°C), followed by sampling at 0, 2, 4, 6, 8, 10, 15, 30, 60, 120, and 180 min. The efflux was investigated through incubating whole blood for 1 h at 2 concentrations (10 and 40 mg/L) at 37°C, centrifugating and briefly washing the erythrocytes with NaCl 0.9%, and letting them equilibrate with fresh plasma while drawing samples at 0, 2, 4, 6, 8, 10, 15, 30, 60, 120, 180 minutes, and 24 hours.
In addition, competition studies were performed with two other antiepileptic agents known for their affinity for CA (zonisamide and topiramate), added at equimolar concentration to 20 mg/L of sultiame. Similar ranges of inhibition constants for CA II were reported in the literature for these three substances.13 Samples (1 mL) were drawn before and at 2, 4, 6, 8, 10, 15, 20, 30, 45, 60, and 120 min after addition of the competitor. Sultiame, zonisamide, and topiramate concentrations were then analyzed. All samples were centrifuged at 18 620 g for 1 minutes at 4°C. Plasma, erythrocyte, and urine fractions were stored separately at − 80°C prior to analysis for a maximum of 9 months. For analysis, plasma and hemolyzed erythrocytes samples were subjected to protein precipitation with MeOH containing the internal‐standard sultiame D4 and quantified with the previously described HPLC‐MS/MS method, using matrix‐matched calibration and quality controls. The sultiame concentrations determined in erythrocytes were corrected for the 10% interstitial plasma remnant in the erythrocyte fraction after centrifugation.14

[3] = set-up: method as in earlier work; conditions: manufacturer's information ref 8; cited from earlier work
[4] = Safety and tolerability assessments in healthy volunteers; format: in vivo, human
Description: All adverse events were recorded with an evaluation of their severity and imputability to the study drug. Each volunteer received a full medical examination at screening and at the end of the study. Visual analogue scales (VAS) on paper support recorded the intensity of 12 potential symptoms (abdominal pain, appetite, nausea, taste of sparkling water, fatigue, headache, dyspnea, dizziness, paresthesia, difficulty in concentration, irritability, and depression) predrug (0 hour) at 0.5, 1, 2, 4, 6, 8, 10, and 24 hours postdose. Vital signs (supine blood pressure, heart rate, body temperature, and respiratory frequency) were measured predose and at 1, 2, 4, 6, 8, 10, and 24 hours postdose. Laboratory parameters, drug screen, and urinalysis were performed at screening and at study end.

[5] = population estimate of final model
[6] = 37 °C, deduced using Arrhenius' law
[7] = single oral doses 50, 100, 200 mg

Btot ([1]; bootstrap evaluation, median): 111 mg | QRen ([1]; bootstrap evaluation, median): 28.8% | Vc ([1]; bootstrap evaluation, median): 64.8 L | Very ([1]; bootstrap evaluation, median): 3.27 L | ka ([1]; bootstrap evaluation, median): 1.88 h⁻¹ | koff ([1]; bootstrap evaluation, median): 2.244 s⁻¹ | kon ([1]; bootstrap evaluation, median, fixed): 560600 M⁻¹ s⁻¹ | Kd ([1]; final population model, read-out: estimated kD of final model (koff/kon)): 4 µM | Vd ([1]; male, human, erythrocytes, oral, population estimate of final model, read-out: Very, cell (erythrocyte compartment) volume of distribution): 3.3 L | Vd ([1]; male, human, plasma, oral, population estimate of final model, read-out: Vc, central volume of distribution): 64.8 L | clearance ([1]; male, human, plasma, oral, bootstrap evaluation, median of 2000 replicates, read-out: CLplasma (converted)): 166 mL/min | kon, association constant ([1]; not estimated but fixed in the in vivo model to the in vitro value at 37°C): 560600 M⁻¹ s⁻¹ | Btot, maximal binding capacity [1, 5]: 111 mg | QRen, fraction eliminated by renal route [1, 5]: 28.8% | Very, cell (erythrocyte compartment) volume of distribution [1, 5]: 3.27 L | ka, constant of absorption [1, 5]: 1.88 h⁻¹ | koff, dissociation constant [1, 5]: 2.244 s⁻¹ | CLplasma, apparent plasma clearance (CL/F) ([1]; population estimate of final model, oral 50, 100, 200 mg): 10.0 L/h and 9.95 L/h | erythrocyte/plasma ratio ([2]; concentrations of 10 mg/L or less): 800 | erythrocyte/plasma ratio ([2]; concentrations of 20 mg/L and above): less than 30 | efflux from incubated erythrocytes into blank plasma ([2]; erythrocytes incubated 1 h at 10 and 40 mg/L, 37°C, data not shown): only minute amounts | in vitro binding capacity ([2]; in vitro evaluation): exceeding 20 mg per liter of whole blood | whole blood concentration at which saturation of erythrocytes occurs ([2]; in vitro spiking): ~20 mg/L | time to steady state of erythrocyte/plasma ratio ([2]; spiked fresh human whole blood): about 10 minutes
Structure (SMILES): NS(=O)(=O)c1ccc(N2CCCCS2(=O)=O)cc1 [Sultiame]
koff [2, 6]: 0.0486 s⁻¹ | kon [2, 6]: 560600 M⁻¹ s⁻¹ | Plasma‐free fraction [3]: 71% | transient facial and limb paresthesia ([4]; after intake of the highest dose of 200 mg, four subjects): reported by three subjects | gastrointestinal and central nervous system tolerance using VAS [4, 7]: limited impact | symptom most frequently reported [4, 7]: Fatigue | severe or serious adverse events ([4]; single oral doses 50, 100, 200 mg, four subjects): No severe or serious adverse events were reported
